Source: patent US12319752B2, “Heparin-binding cationic peptide self-assembling peptide amphiphiles useful against drug-resistant bacteria” (priority 2016, dated 2025)
Residues, ends and D or L forms follow the SMILES beside them. *: point of attachment. Palmitoyl = CCCCCCCCCCCCCCCC(=O)*

Tests used:
MRSA [1] = test: Viable colony count assay (bactericidal effect, 4 h); assay type: cell-based, methicillin-resistant S. aureus (MRSA, ATCC #43300)
Protocol: The bactericidal effects of the peptides were examined using a viable colony count assay as well as the live/dead staining assay. For the viable colony count assay, bacteria were treated with peptides for 4 h and the resulting viable bacterial density of each sample was expressed by log10[CFU/mL]. For the Gram-positive bacteria tested, the decrease in bacterial density was dependent on the concentration of the ACA-PA (FIG. 8A). […] As for Gram-negative E. coli and MDR E. coli bacteria (FIG. 8B), the ACA nanorods, wherein the PA were added at a concentration above their CMC, had potent bactericidal effects. For example, the ACA nanorods at concentrations over 60 μM reduced the colony forming units of Gram-negative bacteria by about a five log unit reduction after 4 h compared with the untreated negative control sample.
In addition, ACA-PA were mixed with heparin at various weight ratios (1:1, 1:2, and 1:3 ACA-PA to heparin ratios) to block the Cardin motif groups on the PA. The ACA-PA concentration used to treat bacteria (MRSA and MDR E. coli) was a constant 80 μM and only varied in the concentration of heparin.
The viable count assay was performed to quantify the bactericidal activity of each peptide. Stock solutions of peptides were diluted in 3% TSB media to concentrations ranging from 20 μM to 100 μM immediately before experiments. Heparin-ACA-PA were also prepared by mixing the ACA-PA stock solution with heparin (sodium salt from porcine intestinal mucosa, Sigma, St. Louis, MO) to 1:1, 1:2 and 1:3 weight ratios in water, and a final concentration of ACA-PA in the heparin-ACA-PA at each heparin weight ratio was adjusted to 80 μM for each experiment. The bacteria (10^6 CFU/mL) were incubated with peptides at 37° C. for 4 h. After incubation, serial dilutions of samples were plated on TSB agar and then incubated at 37° C. overnight. The colonies from each spot were manually counted, and the CFU number for each sample was determined. Experiments were conducted in triplicate and results were expressed as the log 10 values of the CFU number in each sample. Data were expressed by stand error of the mean (±S.E.M.) and N=3, *p<0.05 compared with control samples and #p<0.05 compared with bacteria treated with 40 μM of ACA-PA.

MRSA [2] = test: Live/dead bacterial viability assay; assay type: cell-based, methicillin-resistant S. aureus (MRSA); conditions: 4 h
Source text: To further investigate bacteria viability after treatment with ACA-PA, the live/dead assay was used to confirm the antibacterial actions of ACA-PA. Dead bacteria with disrupted membrane were stained a first color, whereas live bacteria were stained with a second color fluorescence. A large amount of robust MRSA bacteria in the untreated control sample appeared a second color and in spherical shapes (FIG. 10A). […] This antibacterial activity was dependent on the concentration of PA, yet was not determined by peptide self-assembly. Nonetheless, Gram-negative MDR E. coli responded to the treatment of ACA-PA differently from Gram-positive MRSA.
The live/dead bacterial viability assay was conducted to further assess the bactericidal efficacy of ACA-PA using the LIVE/DEAD BacLight Bacterial Viability Kits (Kits 71007, Molecular Probes, Eugene, OR, USA). MRSA and MDR E. coli bacteria (100 μl, 10^6 CFU/mL) were incubated with 80 μM and 40 μM of peptide in 3% TSB media at 37° C. for 4 h on a 96-well plate, and the control samples of bacteria were incubated in 3% TSB media only. […] The live bacteria stained fluorescent a second color (SYTO9 nucleic acid stain), whereas the dead bacteria with disrupted membranes stained fluorescent a first color (propidium iodide, PI).

[3] = Cytotoxicity, MTS cell viability assay; assay type: cell-based, human; conditions: human, human dermal fibroblasts (HDF, Detroit 551, ATCC CCL-110)
Protocol: (§1) To evaluate the cytotoxicity of the peptides, human dermal fibroblasts (HDF) were treated for 24 h, and cell viability was determined via MTS assays (FIG. 13).
(§2) Human dermal fibroblast cells (HDF, Detroit 551, ATCC #CCL-110) were cultured in Dulbecco's modified Eagle medium (DMEM; Fisher, Pittsburgh, PA) supplemented with 10% fetal bovine serum (FBS) and 1% penicillin/streptomycin for 24 h. All cells were cultured to 90% confluence in a 37° C., humidified, 5% CO2/95% air environment. Cells at passage numbers of 4-7 were used in these experiments.
(§3) The MTS cell viability assay kit (Promega, Madison, WI, USA) was used to determine cytotoxicity of the peptides. First, HDF cells were seeded on a 96-well plate at a cell density of 5,000 cells/well (equal to 15,385 cells/cm^2), and were incubated overnight for cell adhesion. After overnight incubation, the cell medium in each well was replaced by 100 μL of cell culture medium containing various concentrations of peptides (20 μM to 100 μM). The control samples were cells incubated in cell culture medium only. After 24 h, the treatment medium in each well was removed. The cells were washed with phosphate buffered saline (PBS, pH=7.4, Fisher, PA, USA) and 100 μL of fresh cell culture medium was added to each well, followed by the addition of 20 μL of the MTS reagent. After the cells were incubated for 2.5 h, the absorbance was measured at a wavelength of 490 nm by a spectrophotometer (SpectraMax M3, Molecular Devices, Molecular Devices, Sunnyvale, CA, USA). To estimate the cell numbers in each well, a standard curve expressing the linear correlation between different cell densities and optical densities (R^2>0.95) was plotted, and the cell numbers were determined with this standard curve from the OD490 value recorded in each sample. The cell viability of each sample was calculated by: Cell viability=[(cell density per mL of treated sample)/(cell density per mL of control sample)]×100%. Data were expressed by standard error of the mean (±S.E.M.) and N=3, *p<0.05 compared with control samples.

[4] = tested on: human dermal fibroblasts (HDF); test: Cytotoxicity, MTS cell viability assay; assay type: cell-based
Protocol: as §1, §2, §3

With `CCCCCCCCCCCCCCCC(=O)N[C@H](C(=O)N[C@H](C(=O)N[C@H](C(=O)N[C@H](C(=O)N[C@@H](CCCCN)C(=O)N[C@@H](CCCCN)C(=O)N[C@@H](CCCCN)C(=O)N[C@@H](CCCCN)C(=O)NCC(=O)N[C@@H](C)C(=O)N[C@@H](CCCCN)C(=O)N[C@@H](CCCCN)C(=O)N[C@@H](C)C(=O)N[C@@H](CCCNC(=N)N)C(=O)N[C@@H](C)C(=O)N[C@@H](C)C(=O)N[C@@H](CCCCN)C(=O)N[C@@H](CCCCN)C(=O)N[C@@H](C)C(=O)N[C@@H](CCCNC(=N)N)C(=O)N[C@@H](C)C(=O)O)C(C)C)C(C)C)C(C)C)C(C)C` [ACA-PA, C16-V4K4G(AKKARA)2 (SEQ ID NO: 7)] (Palmitoyl-VVVVKKKKGAKKARAAKKARA-OH; N-terminus and C-terminus assumed) the “decrease in bacteria density” value (MRSA [1]; MRSA (Gram-positive), 60 to 100 μM) was roughly 100 fold, the “number of viable bacteria colonies after mixing with heparin” value (MRSA [1]; MRSA, 80 μM ACA-PA, 1:1, 1:2, 1:3 ACA-PA to heparin weight ratios) was “positively proportional to the amount of heparin added” and the “toxicity towards bacteria after mixing with heparin” value (MRSA [1]; MRSA, 80 μM ACA-PA, 1:3 ACA-PA to heparin weight ratio, 4 h) was “no toxicity towards bacteria”. The “decline in bacteria density” value (MRSA [1]; MRSA, over 80 μM, 4 h) was 100 fold, the “decrease of colony forming units” value (MRSA [1]; MRSA, over 80 μM, 4 h) was “two” and the “bacterial viability (live/dead staining)” value (MRSA [2]; 40 μM) was “markedly reduced MRSA viability”. The “bacterial viability (live/dead staining)” value (MRSA [2]; 80 μM) was “coverage of dead bacteria increased with low density of live bacteria”, the viability at 24 h, 100 µM [3] was greater than 50% and the cytotoxicity [4] was “moderate cytotoxicity”.
